Data set [1] in a line: Pharmacokinetic experiment in Beagle dogs. Format: in vivo, Beagle dog. The settings on record: oral capsules, 5 mg/kg. Here is the method:
The inventors conducted a pharmacokinetic evaluation of the salt or its crystal form of the present invention in Beagle dogs.
The test sample (i.e., the salt or crystal form of the present invention, or the compound having formula (I) of the present invention) was filled into capsules for oral administration. The animals were fasted for 12 h before the administration, and they had free drinking water. Capsules containing test samples were administered orally at a dose of 5 mg/kg. After administration, intravenous blood was collected at the following time points (about 0.15 mL of blood taken): 0.25, 0.5, 1.0, 2.0, 4.0, 6.0, 8.0 and 24 h. EDTA-K2 was added as an anticoagulant in the blood collection tube in advance, the blood sample was centrifuged at 12,000 rpm for 2 minutes, the plasma was collected, and stored at −20° C. or −70° C.
After processing the plasma samples collected above (after the frozen plasma was thawed at room temperature, it was whirled for 5 minutes to mix well, then 20 μL of plasma was taken, 120 μL of acetonitrile solution containing internal standard was added, the mixture was whirled for 5 minutes to mix well, and centrifuged at 4,000 rpm for 5 minutes, then 100 μL of the supernatant was taken, 130 μL of methanol-water (V/V=1/1) was added to mix well), a standard curve with a suitable range was established according to the concentration of the test sample, and the LC-MS/MS with AB SCIEX API5500 was used, the concentration of the test sample in the plasma sample was determined in the MRM mode, and quantitative analysis was performed. Pharmacokinetic parameters were calculated according to drug concentration-time curve using a non-compartmental method by WinNonLin 6.3 software.

Data set [2] is described as follows: Solubility experiment in water. Format: physicochemical. Here is the method: The solubility of the present invention was determined using an Agilent 1200 High Performance Liquid Chromatograph DAD/VWD detector with an Agilent XDB-C18 model (4.6×50 mm, 5 μm). Detection wavelength was 266 nm, flow rate was 1.0 mL/min, the column temperature was 35° C., mobile phase A: acetonitrile: 0.01 M ammonium acetate=10:90 (V:V), analysis methods: acetonitrile: mobile phase A=70:30 (V:V), running time was 10 minutes.
The test sample was taken into 37° C. organic ultrapure water to prepare a supersaturated solution. After shaking for 24 h, the mixture was filtered with an aqueous filter membrane to obtain the filtrate. The solubility of the test sample in water was detected by HPLC.

A short description of data set [3]: Hygroscopicity experiment. Format: physicochemical. The settings on record: 25° C., saturated ammonium chloride solution desiccator, 24 hours. Here is the method:
1) A dry stoppered glass weighing bottle (outer diameter of 50 mm, height of 15 mm) was taken the day before, and placed in a 25° C.±1° C. constant temperature desiccator (a saturated ammonium chloride solution was placed at the bottom), and the weighing bottle was weighed accurately (m1).
2) An appropriate amount of the test sample was taken, and spread flat in the above weighing bottle, the thickness of the test sample was generally about 1 mm, and the weighing bottle was weighed accurately (m2).
3) The weighing bottle was open and placed under the above constant temperature and humidity conditions with the bottle cap for 24 hours.
4) The bottle cap was covered on the weighing bottle, and weighed accurately (m3), and calculate: the percentage increase in weight %=(m3−m2)/(m2−m1)×100%

A short description of data set [4]: Stability experiment (high temperature, high humidity, light). Format: physicochemical. Here is the method: (1) High temperature experiment: an appropriate amount of a batch of test samples were taken into flat weighing bottles, and spread into a thin layer ≥5 mm thick. The above weighing bottles were placed in a constant temperature box at 40° C.±2° C./75%±5% RH and/or 60° C.±2° C./75%±5% RH for 30 days, the samples were taken on the 5th, 10th, and 30th days, and tested according to the key stability inspection items: the color changes of the samples were observed, the purities of the samples were checked by HPLC, and the structure of the samples were analyzed by X-ray powder diffraction.
(2) High humidity experiment: an appropriate amount of a batch of test samples were taken into flat weighing bottles, and spread into a thin layer ≥5 mm thick. The above weighing bottles were placed at 25° C., RH 75%±5% or RH 90%±5% RH for 30 days, the samples were taken on the 5th, 10th, and 30th days, and tested according to the key stability inspection items: the color changes of the samples were observed, the purities of the samples were checked by HPLC, and the structures of the samples were analyzed by X-ray powder diffraction.
(3) Light experiment: an appropriate amount of a batch of test samples were taken into flat weighing bottles, and spread into a thin layer ≥5 mm thick. The above weighing bottles were placed and opened in a light box (with UV) at the illuminance 4500±500 lx, UV light ≤0.7 w·h/m^2 for 30 days, the samples were taken on the 5th, 10th, and 30th days, and tested according to the key stability inspection items: the color changes of the samples were observed, the purities of the samples were checked by HPLC, and the structures of the samples were analyzed by X-ray powder diffraction.

Setting [5] is: High humidity (25° C., RH 75% ± 5%), the 5th day.
Where [6] appears, read: High humidity (25° C., RH 75% ± 5%), the 10th day.
[7] abbreviates: High humidity (25° C., RH 75% ± 5%), the 30th day.
Setting [8] is: High humidity (25° C., RH 90% ± 5%), the 5th day.
Where [9] appears, read: High humidity (25° C., RH 90% ± 5%), the 10th day.
Where [10] appears, read: High humidity (25° C., RH 90% ± 5%), the 30th day.
Setting [11] is: High temperature (40° C.), the 5th day.
Where [12] appears, read: High temperature (40° C.), the 10th day.
Where [13] appears, read: High temperature (40° C.), the 30th day.
[14] abbreviates: High temperature (60° C.), the 5th day.
Setting [15] is: High temperature (60° C.), the 10th day.
Where [16] appears, read: High temperature (60° C.), the 30th day.

Like-named read-outs stand apart in the source and are kept apart here.

In data set [1] (dog, plasma), `CN1CCC(=C(F)c2cccc(NC(=O)c3c(F)cc(F)cc3F)n2)CC1` [Compound having formula (I), 2,4,6-trifluoro-N-(6-(fluoro(1-methylpiperidin-4-ylidene)methyl)pyridin-2-yl)benzamide] gave an AUC(0-t) of 117 ng·h/mL. In data set [1] (dog, plasma, read-out: Cmax), the highest concentration (Cmax) came out at 0.0328 µg/mL. Also, the Tmax in data set [1] (dog, plasma, read-out: Tmax) worked out at 3.67 h. Further, the “Water solubility (in words)” value in data set [2] is recorded as “poor water solubility”. Moreover, in data set [2] (thermodynamic from solid, 37° C. water, shaking for 24 h, read-out: Concentration of compound having formula (I) in saturated aqueous solution), the solubility thermodynamic at 24 h was 2590 µg/mL.
In data set [1], `CN1CCC(=C(F)c2cccc(NC(=O)c3c(F)cc(F)cc3F)n2)CC1.CS(=O)(=O)O` [Example 1] had an AUClast of 238 ng·h/mL. Further, in data set [1], the Cmax came out at 0.0999 µg/mL. The Tmax in data set [1] is 0.667 h. For the same compound, the “Concentration of compound having formula (I) in saturated aqueous solution” value in data set [2] (37° C. water, shaking for 24 h) was 300880 µg/mL. In data set [3], the Hygroscopic feature entry is on record as “no or almost no hygroscopicity”. In addition, the Appearance result in data set [4] (0 day), in data set [4] (setting [5]), in data set [4] (setting [6]), in data set [4] (setting [7]), in data set [4] (setting [8]) and in data set [4] (setting [9]) was “white” in each case. The Appearance result in data set [4] (setting [10]), in data set [4] (setting [11]), in data set [4] (setting [12]), in data set [4] (setting [13]), in data set [4] (setting [14]) and in data set [4] (setting [15]) was “white” throughout. In addition, the Appearance result in data set [4] (setting [16]) is “white”; in data set [4] (Light, the 5th day) it was “white”; in data set [4] (Light, the 10th day), “white”; in data set [4] (Light, the 30th day) it was “white”. Also, the Purity in data set [4] (0 day) is given as 99.66%; in data set [4] (setting [5]), 99.71%; in data set [4] (setting [6]), 99.74%; in data set [4] (setting [7]), 99.77%; in data set [4] (setting [8]), 99.68%; in data set [4] (setting [9]) it was 99.71%. Further, the Purity in data set [4] (setting [10]) was found to be 99.72%; in data set [4] (setting [11]), 99.73%; in data set [4] (setting [12]) it was 99.72%; in data set [4] (setting [13]) it was 99.79%; in data set [4] (setting [14]) it was 99.72%; in data set [4] (setting [15]) it was 99.74%. Also, the Purity was 99.8% in data set [4] (setting [16]); 99.59% in data set [4] (Light, the 5th day); 99.43% in data set [4] (Light, the 10th day); 97.66% in data set [4] (Light, the 30th day). Also, in data set [4] (high temperature, high humidity and light, 30 days), the “Changes of appearance, purity and crystal form” value is given as “no obvious changes”.
For the compound `CN1CCC(=C(F)c2cccc(NC(=O)c3c(F)cc(F)cc3F)n2)CC1.O=S(=O)(O)c1ccccc1` [Example 3], in data set [2] (37° C. water, shaking for 24 h), the “Concentration of compound having formula (I) in saturated aqueous solution” value came to 1890 µg/mL.
